Reference: patent publication US20260070922A1, “PYRAZOLE AND IMIDAZOLE DERIVATIVES AS DUAL OREXIN AND KAPPA-OPIOID RECEPTORS MODULATORS COMPOSITION, METHODS FOR TREATING NEUROLOGICAL AND PSYCHIATRIC DISORDERS” (HAGER BIOSCIENCES, LLC, priority 2022, published 2026)

Assays:
[1] = biological target: T1, Orexin type 1 (OX1R) receptor (Homo sapiens, UniProt O43613); experiment: In vitro orexin antagonism assay: intracellular calcium measurement (FLIPR), orexin-A 3 nM as agonist; type: cell-based; conditions: for inhibition at 1 µM: read-out: OX1R, % Inh. @ 1 uM; for IC50: first value of IC50/Kb cell; for Kb: second value of IC50/Kb cell
T1 construct: expressed in transfected cells; host or cells: CHO cells (G418 selection)
T1 sequence (O43613 1-425): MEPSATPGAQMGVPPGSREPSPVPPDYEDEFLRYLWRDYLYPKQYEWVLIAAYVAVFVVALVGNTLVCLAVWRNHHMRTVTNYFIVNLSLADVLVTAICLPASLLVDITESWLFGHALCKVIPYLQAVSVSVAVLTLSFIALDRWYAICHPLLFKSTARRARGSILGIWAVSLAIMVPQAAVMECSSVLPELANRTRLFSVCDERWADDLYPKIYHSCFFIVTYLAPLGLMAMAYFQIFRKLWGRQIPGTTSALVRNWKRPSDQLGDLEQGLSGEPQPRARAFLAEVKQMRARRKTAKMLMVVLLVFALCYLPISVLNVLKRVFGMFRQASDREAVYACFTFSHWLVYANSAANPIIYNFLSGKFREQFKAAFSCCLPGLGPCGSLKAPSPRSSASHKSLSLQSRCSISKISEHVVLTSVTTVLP
Protocol: (§1) In Vitro Orexin Antagonism Measurement Assay: Intracellular Calcium Measurements:
(§2) Chinese hamster ovary (CHO) cells expressing the human […] and the human orexin-2 receptor, respectively, are grown in culture medium (Ham F-12 with L-Glutamine) containing 300 μg/mL G418, 100 U/mL penicillin, 100 μg/mL streptomycin and 10% heat inactivated fetal calf serum (FCS). The cells are seeded at 20,000 cells/well into 384-well black clear bottom sterile plates (Greiner). The seeded plates are incubated overnight at 37° C. in 5% 002. Human orexin-A as an agonist is prepared as 1 mM stock solution in MeOH: water (1:1), diluted in HBSS containing 0.1% bovine serum albumin (BSA), NaHCO3: 0.375 g/L and 20 mM HEPES for use in the assay at a final concentration of 3 nM.
(§3) Antagonists are prepared as 10 mM stock solution in DMSO, then diluted in 384-well plates using DMSO followed by a transfer of the dilutions into in HBSS containing 0.1% bovine serum albumin (BSA), NaHCO3: 0.375 g/L and 20 mM HEPES. On the day of the assay, 50 μL of staining buffer (HBSS containing 1% FCS, 20 mM HEPES, NaHCO3: 0.375 g/L, 5 mM probenecid (Sigma) and 3 μM of the fluorescent calcium indicator fluo-4 AM (1 mM stock solution in DMSO, containing 10% pluronic) is added to each well. The 384-well cell-plates are incubated for 50 min at 37° C. in 5% CO2 followed by equilibration at RT for 30 min before measurement.
(§4) Within the Fluorescent Imaging Plate Reader (FLIPR Tetra, Molecular Devices), antagonists are added to the plate in a volume of 10 μL/well, incubated for 120 min and finally 10 μL/well of agonist is added. Fluorescence is measured for each well at 1 second intervals, and the height of each fluorescence peak is compared to the height of the fluorescence peak induced by 3 nM orexin-A with vehicle in place of antagonist. The IC50 value (the concentration of compound needed to inhibit 50% of the agonistic response) is determined and may be normalized using the obtained IC50 value of an on-plate reference compound. Optimized conditions were achieved by adjustment of pipetting speed and cell splitting regime. The calculated IC50values may fluctuate depending on the daily cellular assay performance. Fluctuations of this kind are known to those skilled in the art.

[2] = biological target: T2, human orexin-2 receptor (OX2R) (Homo sapiens, UniProt O43614); experiment: as above; type: cell-based; conditions: for inhibition at 1 µM: read-out: OX2R, % Inh. @ 1 uM
T2 construct: expressed in transfected cells; host or cells: CHO cells (G418 selection)
T2 sequence (O43614 1-444): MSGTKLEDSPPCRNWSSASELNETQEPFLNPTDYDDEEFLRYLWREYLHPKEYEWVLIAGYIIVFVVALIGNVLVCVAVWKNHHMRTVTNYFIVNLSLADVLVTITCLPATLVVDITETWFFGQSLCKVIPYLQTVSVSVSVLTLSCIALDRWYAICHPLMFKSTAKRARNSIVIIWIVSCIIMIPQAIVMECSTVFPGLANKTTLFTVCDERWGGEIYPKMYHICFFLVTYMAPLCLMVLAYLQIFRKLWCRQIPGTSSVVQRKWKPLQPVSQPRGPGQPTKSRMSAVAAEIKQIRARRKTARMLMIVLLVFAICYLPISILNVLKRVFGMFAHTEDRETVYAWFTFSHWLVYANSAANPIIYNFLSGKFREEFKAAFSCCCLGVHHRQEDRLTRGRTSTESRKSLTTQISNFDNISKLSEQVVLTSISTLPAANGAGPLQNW
Protocol: Antagonistic activities on both orexin receptors have been measured for each example compound using the following procedure:
as §1, §2, §3
as §4, with “art. In the case where IC50values have been determined several times for the same compound, the geometric mean has been given.” for “art.”

| SMILES | inhibition at 1 µM [1] [%] | inhibition at 1 µM [2] [%] | IC50 [1] [nM] | Kb [1] [nM] | OX1R, % Inh. @ 1 uM ([1]; @ 1 uM) [%] | OX2R, % Inh. @ 1 uM ([2]; @ 1 uM) [%] |
| --- | --- | --- | --- | --- | --- | --- |
| O=C(c1c(-c2ccccc2F)nn2c1COCC2)N1[C@H](Cn2ccc(-c3ccc(F)cn3)n2)C[C@@H]2C[C@@H]21 [Example 108] | 23 | 17 | – | – | – | – |
| O=C(c1c(-c2ccccc2)nc2ccc(F)cn12)N1[C@H](Cn2ccc(-c3ccc(F)cn3)n2)C[C@@H]2C[C@@H]21 [Example 109] | 45 | 32 | – | – | – | – |
| O=C(c1c(-c2ccccc2)nc2cc(C(F)(F)F)ccn12)N1[C@H](Cn2ccc(-c3ccc(F)cn3)n2)C[C@@H]2C[C@@H]21 [Example 110] | 69 | 42 | 280 | 60 | – | – |
| O=C(c1c(-c2ccccc2)nn2c1COCC2)N1CCOC[C@H]1COc1ccc(C(F)(F)F)cn1 [Example 113] | 12 | 8 | – | – | – | – |
| O=C(c1c(-c2ccccc2)nn2ccccc12)N1CCOC[C@H]1COc1ccc(C(F)(F)F)cn1 [Example 114] | 14 | 6 | – | – | – | – |
| O=C(c1c(-c2ccccc2)nn2c1COCC2)N1CCC[C@H]1Cc1nc(-c2ccc(F)cn2)no1 [Example 116] | 10 | 19 | – | – | – | – |
| O=C(c1c(-c2ccccc2)nc2ccc(F)cn12)N1CCC[C@H]1Cc1nc(-c2ccc(F)cn2)no1 [Example 121] | 44 | 45 | – | – | – | – |
| O=C(c1nc2ccccn2c1-c1ccccc1)N1CCC[C@H]1Cn1ccc(-c2ccc(F)cn2)n1 [Example 123] | – | – | – | – | 100 | 42 |
| O=C(c1nc2ccccn2c1-c1ccccc1)N1CCC[C@H]1COc1ccc(C(F)(F)F)cn1 [Example 124] | 100 | 36 | 5 | 1 | – | – |
| O=C(c1nn2c(c1-c1ccccc1)OCCC2)N1CCC[C@H]1COc1ccc(C(F)(F)F)cn1 [Example 142] | 100 | 42 | 6 | 1 | – | – |
| O=C(c1nn2c(c1-c1ccccc1)COCC2)N1C2CCC1(COc1ccc(C(F)(F)F)cn1)CC2 [Example 159] | 86 | 15 | 48 | 10 | – | – |
| O=C(c1nc2ccccn2c1-c1ccccc1)N1C2CCC1(COc1ccc(C(F)(F)F)cn1)CC2 [Example 160] | 98 | 2 | 24 | 5 | – | – |
| O=C(c1c(-c2ncccn2)nn2ccccc12)N1C2CCC1(COc1ccc(C(F)(F)F)cn1)CC2 [Example 161] | 44 | 6 | – | – | – | – |
| C[C@@]1(COc2cnc(C(F)(F)F)cn2)CCCN1C(=O)c1nn2c(c1-c1ccccc1)COCC2 [Example 162] | 36 | 0 | – | – | – | – |
| C[C@@]1(COc2cnc(C(F)(F)F)cn2)CCCN1C(=O)c1nc2ccccn2c1-c1ccccc1 [Example 163] | 75 | 11 | 771 | 162 | – | – |
| C[C@@]1(COc2cnc(C(F)(F)F)cn2)CCCN1C(=O)c1c(-c2ccccn2)nn2ccccc12 [Example 164] | 84 | 20 | 305 | 64 | – | – |

| SMILES | inhibition at 1 µM [1] [%] | inhibition at 1 µM [2] [%] | IC50 [1] [nM] | Kb [1] [nM] | OX1R, % Inh. @ 1 uM ([1]; @ 1 uM) [%] | OX2R, % Inh. @ 1 uM ([2]; @ 1 uM) [%] |
| --- | --- | --- | --- | --- | --- | --- |
| C[C@@]1(COc2cnc(C(F)(F)F)cn2)CCCN1C(=O)c1nn2c(c1-c1ccccc1)OCCC2 [Example 165] | 50 | 6 | – | – | – | – |
| C[C@@]1(COc2cnc(C(F)(F)F)cn2)CCCN1C(=O)c1c(-c2ncccn2)nn2ccccc12 [Example 166] | 53 | 10 | – | – | – | – |
| C[C@@]1(COc2cnc(C(F)(F)F)cn2)CCCN1C(=O)c1nn2cccnc2c1-c1ccccc1 [Example 167] | 82 | 20 | 326 | 69 | – | – |
| C[C@@]1(COc2cnc(C(F)(F)F)cn2)CCCN1C(=O)c1c(-c2ccccc2)nn2cccnc12 [Example 168] | 72 | 28 | 475 | 100 | – | – |
| C[C@@]1(COc2cnc(C(F)(F)F)cn2)CCCN1C(=O)c1c(-c2ccccc2)nn2c1COCC2 [Example 169] | 2 | 15 | – | – | – | – |
| C[C@@]1(COc2cnc(C(F)(F)F)cn2)CCCN1C(=O)c1nn2ccccc2c1-c1ccccc1 [Example 170] | 85 | 23 | 460 | 97 | – | – |
| O=C(c1nn2ccccc2c1-c1ccccn1)N1CCC[C@H]1Cc1nc(-c2ccccn2)no1 [Example 175] | 93 | 29 | 11 | 2 | – | – |
| O=C(c1nn2ccccc2c1-c1ccccn1)N1CCC[C@H]1Cc1nc(-c2ccc(F)cn2)no1 [Example 176] | 93 | 40 | 12 | 2 | – | – |
| O=C(c1nc2ccccn2c1-c1ccccn1)N1CCC[C@H]1COc1ccc(C(F)(F)F)cn1 [Example 179] | 99 | 12 | 8 | 2 | – | – |
| O=C(c1nc2ccccn2c1-c1ccccn1)N1CCC[C@H]1Cn1ccc(-c2ccccn2)n1 [Example 180] | 97 | 27 | 17 | 4 | – | – |
| O=C(c1nn2ccccc2c1-c1ccccn1)N1CCC[C@H]1Cn1ccc(-c2ccc(F)cn2)n1 [Example 182] | 96 | 59 | 19 | 4 | – | – |
| O=C(c1nc2n(c1-c1ccccn1)CCOC2)N1CCC[C@H]1COc1ccc(C(F)(F)F)cn1 [Example 184] | 42 | 10 | – | – | – | – |
| O=C(c1nn2cccnc2c1-c1ccccn1)N1CCC[C@H]1Cn1ccc(-c2ccccn2)n1 [Example 185] | 94 | 61 | 16 | 3 | – | – |
| O=C(c1nn2cccnc2c1-c1ccccn1)N1CCC[C@H]1Cc1nc(-c2ccccn2)no1 [Example 188] | 82 | 23 | 29 | 6 | – | – |
| O=C(c1nn2cccnc2c1-c1ccccn1)N1CCC[C@H]1Cc1nc(-c2ccc(F)cn2)no1 [Example 189] | 94 | 43 | 18 | 4 | – | – |
